{"source": "patent US20180353445A1", "about": "“METHODS AND COMPOSITIONS RELATING TO PROTEASOME INHIBITOR RESISTANCE” (Whitehead Institute for Biomedical Research, priority 2017, published 2018)", "key": {"[1]": {"system": "IMR32 and Kelly cells", "assay": "Viability of IMR32 vs Kelly neuroblastoma cells", "type": "cell-based, human", "protocol": "FIGS. 24A-24C: (FIG. 24A) Plot showing the effect of various concentrations of ABT-263 on IMR32 and Kelly cells. (FIG. 24B) Plot showing effect of various concentrations of disulfiram on IMR32 and Kelly cells. (FIG. 24C) Plot showing effect of various concentrations of elesclomol on IMR32 and Kelly cells. Fold viability refers to the number of viable cells of the indicated type after culture in the presence of the indicated test compound for 72 hours divided by the number of viable cells of that type after culture in the absence of the test compound.\nFIG. 28: The relative viability was examined in IMR32 cells and Kelly cells after addition of indicated concentrations of the different BCL2 family inhibitors. ABT-263 (BCL2, BCLXL, MCL1) (upper left panel), ABT-199 (BCL2) (upper right panel), WEHI-539 (BCLXL) (lower left panel), A-1210477 (MCL1) (lower right panel). The relative effect on cell growth was analyzed 72 hours after addition of drugs."}, "[2]": {"system": "cancer cell lines (GDSC)", "assay": "Genomics of Drug Sensitivity in Cancer (GDSC) data analysis, IC50 of bortezomib and MG132 vs 19S expression / sigma score", "type": "cell-based, human", "settings": "GDSC database", "quoted_text": "In some aspects, whether a cancer cell is considered resistant or sensitive to a particular agent may be determined by comparing the IC50 of the agent for the cancer cell with the IC50 of the agent as measured for each cell line in a panel of diverse cancer cell lines. Cancer cells for which the agent has an IC50 in the 10th percentile of IC50 values determined for the agent on a diverse panel of cancer cell lines may be considered sensitive, while cancer cells for which the agent has an IC50 in the 90th percentile of IC50 values determined for the agent on a diverse panel of cancer cell lines may be considered resistant to the agent.\nWe asked if this might correlate with changes in 19S subunit expression. We analyzed the Genomics of Drug Sensitivity in Cancer (GDSC) database, a public resource of transcriptional data and drug responsiveness collected from a spectrum of human cancer cell lines with diverse tissue origins and diverse oncogenic lesions (Garnett et al., 2012). […]\nFurther details of methods used in GDSC dataset analysis: Gene expression and drug sensitivity data was downloaded from the World Wide Web at subdomain cancerrxgene.org. […] For each proteasomal subunit gene, a-score was calculated for each cell line. […] P-values were calculated by t-test, comparing the logEC50s between the 3 sigma and not 3 sigma."}, "[3]": {"system": "T47D cells", "assay": "Elesclomol combined with proteasome inhibitors, control and PSMD2 KD (Lo19S) T47D cells, CellTiter-Glo", "type": "cell-based, human", "method": "FIGS. 38A-38D: Elesclomol synergizes with proteasome inhibitors. Validation of drug screen results. Control and PSMD2 knockdown cells were exposed to the indicated concentrations of either ixazomib (FIG. 38A) or elesclomol (FIG. 38B). Control (FIG. 38C) or PSMD2 KD (FIG. 38D) cells were treated with increasing concentrations of ixa.zomib in the presence or absence of the indicated concentrations of elesclomol. Cell viability was examined 72 hours after drug application using CellTiter-Glo.\n(FIG. 39B) Cells with the 19S PSMD2 subunit KD were treated with indicated concentration of ixazomib or with indicated concentrations of ixazomib with 4:1 ratio of ixazomib to elesclomol (i,e, the concentration of elesclomol is 4× smaller than the indicated concentration of ixazomib). (FIG. 39C) The experiment described in (FIGS. 39A-39B).\nFIGS. 50A-50D: Elesclomol targets the Lo19S state to block proteasome inhibitor resistance. […] The relative viability of the Lo19S versus control cells was calculated for replica experiments and the log2 of the ratio is plotted. […] The relative viability of the respiring cells (Hi-OXPHOS) (gal) versus the control cells (glu) was calculated for replica experiments and the log2 of the ratio is plotted. Specific compounds are annotated. […] Plotted are the mean±−SD of at least three replicas and the calculated EC50s. […]"}, "[4]": {"molecular_target": "T1, FDX1 (Homo sapiens, UniProt P10109)", "T1 construct": "made in house", "T1 sequence (P10109 62-184)": "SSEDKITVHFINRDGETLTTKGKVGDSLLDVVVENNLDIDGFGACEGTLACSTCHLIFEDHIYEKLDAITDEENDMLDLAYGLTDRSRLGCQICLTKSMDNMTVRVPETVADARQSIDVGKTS", "assay": "In vitro Fe-S cluster assembly assay with reduced FDX1", "type": "biochemical", "settings": "reduced FDX1 as reductant; 5x and 10x stoichiometry relative to ISCU and FDX1", "description": "Whether elesclomol can inhibit the functional activity of FDX1 in mediating the Fe—S cluster formation was also examined. […] (FIG. 47A) A “x5 concentration” as shown in FIGS. 47A-47C means that elesclomol (or isoform) was present at 5 times the concentration of the enzyme. The assay used in FIGS. 47A-47C is described in the paper Cai et al., Biochemistry, 2017, 56 (3), pp 487-499.\nFe—S clusters are generated from sulfur extracted from cysteine by the iron sulfur-cluster (ISC) core complex (NFS1-ISD11-Acp-ISCU)2 and iron. A reductant (FDX1 or FDX2) is required for Fc-S cluster biosynthesis (Lill and Muhlenhoff, 2006; Py and Barras, 2010) (FIG. 53A). […]\nProtein Expression and Purification—Unlabeled samples of ISCU, unlabeled (NFS1-ISD11-Acp)2 (abbreviated as SDA), unlabeled and [U-^15N]-FDX1 (truncated first 61 amino acids) and unlabeled FDX2 were produced and purified as described previously (Cai et al., 2013; Cai et al., 2017a; Cai et al., 20176). […] The reduction of FDX1 or FDX2 was monitored by the color change from dark brown to light pink and by recording IN/vis spectra before and after reduction. […]\nIn vitro Fe—S cluster assembly assay—The in vitro Fe—S cluster assembly assays were carried out as follows. […] The growth of absorbance at 456 nm was used to monitor the assembly of [2Fe-2S] clusters."}, "[5]": {"molecular_target": "T1, FDX1", "assay": "NMR titration of elesclomol against [U-15N]-FDX1 (2D 1H,15N TROSY-HSQC)", "type": "binding", "method": "Most of these residues map to the α2, α3 helices and the β5 strand within the FDX1 structure (FIG. 53E).\nNMR Spectroscopy—NMR spectra were collected at the National Magnetic Resonance Facility at Madison on a 750 MHz (^1H) Balker with a z-gradient cryogenic probe. The buffer used for NMR samples (HNT buffer) contained 20 mM HEPES at pH 7.6, 150 mM NaCl, and 2 mM TCEP. All sample temperatures were regulated at 25° C. NMRPipe software (Delaglio et al., 1995) was used to process the raw NMR data and NMRFAM-SPARKY (Lee et al., 2015) software was utilized to visualize and analyze the processed NMR data.\nTo study the interactions of FDX1 with elesclomol, 0.2 mM [U-^15N]-FDX1 in HNT buffer were placed in 5 mm Shigemi NMR tubes, and 2D ^1H,^15N TROSY-HSQC spectra were collected before and after titration of 5 equivalent molar ratio of elesclomol dissolved in HNT buffer.\nChemical shift perturbations (ΔδHN absolute value ppm) were calculated by\nwhere Δ67 H and ΔδN are the chemical shift changes in the ^1H and ^15N dimensions, respectively."}}, "note": "Entries after “also recorded” stand apart in the source; their conditions may differ."}
{"compound": "CC(C)C[C@H](NC(=O)[C@H](Cc1ccccc1)NC(=O)c1cnccn1)B(O)O", "note": "[bortezomib]", "values": [{"measurement": "resistance of IMR32 cells compared to Kelly cells", "setting": "[1]", "value": "increased resistance"}, {"measurement": "average IC50 value in 3-Sigma cell lines vs all other lines", "setting": "[2]", "value": "considerably higher"}]}
{"compound": "CN(NC(=O)CC(=O)NN(C)C(=S)c1ccccc1)C(=S)c1ccccc1", "note": "[elesclomol]", "values": [{"measurement": "combination effect with proteasome inhibitors", "setting": "[3]", "value": "synergizes"}, {"measurement": "inhibition of in vitro Fe-S cluster assembly", "setting": "[4]", "value": "sufficient to induce an inhibitory effect; also recorded: progressively inhibited"}, {"measurement": "binding to FDX1 by NMR", "setting": "[5]; 0.2 mM [U-15N]-FDX1, 5 equivalent molar ratio of elesclomol", "value": "directly binds FDX1"}, {"measurement": "chemical shift perturbation (Δδ) of the most affected FDX residues", "setting": "[5]; I58-F59, D61, K66, D68, A69, D72-D76, L84, T104-R106", "value": "> 0.01", "unit": "ppm"}]}
